In patent US20100069384A1, “5-ALKYLOXY-INDOLIN-2-ONE DERIVATIVES, PREPARATION THEREOF AND APPLICATION THEREOF IN THERAPY” (SANOFI-AVENTIS, priority 2006, published 2010):

Assays:
[1] = biological target: T1, human recombinant V2 vasopressin receptors (Homo sapiens, UniProt P30518); assay: in vitro binding test, displacement of [H3]-AVP from V2 vasopressin receptors; conditions: CHO membranes, 3.5 nM [H3]-AVP, 45 minutes at 25° C.
T1 construct: expressed in transfected cells; host or cells: CHO
Experimental: The affinity of the compounds of the invention for the V2 vasopressin receptors was measured in in vitro binding tests, as described in J. Pharmacol. Exp. Ther., (2002), 300: pp. 1122-1130.
Plasma membranes (about 20 μg/ml) obtained from CHO tissue or cell line expressing human recombinant V2 vasopressin receptors, are incubated for 45 minutes at 25° C. in 200 μL of TRIS-HCl buffer (50 mM; pH 8.2) containing 2 mM of MgCl2, 1 mM of EDTA, 0.1% of BSA, 1/500 protease inhibitor cocktail (Sigma #P2714) and 3.5 nM of [H3]-AVP. The reaction is stopped by filtration and washing on GF/B filters. Nonspecific binding is determined in the presence of 1 μM of AVP. The compounds of the invention, dissolved beforehand to a concentration of 10^−2 M in DMSO, are tested in a dilution series.
For each concentration the results are expressed as percentage inhibition of specific binding. An IC50 (concentration of product inhibiting 50% of specific binding) is determined for each of the products using the in-house software Biost@t-SPEED v1.3 which employs the 4-parameter logistic model of Ratkovsky and Reedy (1986). Adjustment is obtained by nonlinear regression using Marquardt's algorithm of the SAS v8.2 software running under UNIX.

[2] = biological target: T2, human oxytocin receptors (Homo sapiens, UniProt P30559); assay: in vitro binding test, displacement of a radioiodated oxytocin analogue from oxytocin receptors; conditions: for IC50: membrane preparation of human oxytocin receptors; for IC50 OXT/IC50 V2: selectivity ratio versus V2
T2 sequence (P30559 1-389): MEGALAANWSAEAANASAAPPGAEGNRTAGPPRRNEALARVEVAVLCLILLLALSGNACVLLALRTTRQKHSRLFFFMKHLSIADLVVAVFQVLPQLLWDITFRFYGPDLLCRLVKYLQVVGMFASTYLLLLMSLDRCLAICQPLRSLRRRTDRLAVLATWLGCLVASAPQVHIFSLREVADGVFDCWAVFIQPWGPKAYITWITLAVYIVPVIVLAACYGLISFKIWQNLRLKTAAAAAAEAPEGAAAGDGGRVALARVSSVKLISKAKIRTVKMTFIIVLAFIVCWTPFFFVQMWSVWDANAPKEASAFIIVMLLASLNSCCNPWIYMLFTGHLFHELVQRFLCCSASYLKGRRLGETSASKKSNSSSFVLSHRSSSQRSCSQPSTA
Experimental: (§1) The affinity of the compounds of the invention for the Via and V1b vasopressin receptors and the affinity of the compounds of the invention for the oxytocin (OXT) receptors were also tested.
The affinity of the compounds according to the invention for the OXT receptors was determined in an in vitro binding test using the method described by J. Elands et al. in Eur. J. Pharmacol. 1987, 147, 197-207. This method comprises in vitro investigation of the displacement of a radioiodated analogue of oxytocin from the oxytocin receptors in a membrane preparation of human oxytocin receptors.

[3] = biological target: V1a receptors (Homo sapiens, UniProt P37288); assay: affinity for V1a receptors (method of Thibonnier et al.); assay type: binding; conditions: for IC50 V1a/IC50 V2: selectivity ratio versus V2
Experimental: as §1
(§2) The affinity of the compounds according to the invention for human Via receptors was determined according to the method described by M. Thibonnier et al. in J. Biol. Chem. 1994, 269, 3304-3310. The affinity of the compounds according to the invention for the V1b receptors was determined according to the method described by T. Sugimoto et al. in J. Biol. Chem. 1994, 269, 27088-27092.

[4] = biological target: T3, V1b receptors (Homo sapiens, UniProt P47901); assay: affinity for V1b receptors (method of Sugimoto et al.); assay type: binding; conditions: for IC50 V1b/IC50 V2: selectivity ratio versus V2
T3 sequence (P47901 1-424): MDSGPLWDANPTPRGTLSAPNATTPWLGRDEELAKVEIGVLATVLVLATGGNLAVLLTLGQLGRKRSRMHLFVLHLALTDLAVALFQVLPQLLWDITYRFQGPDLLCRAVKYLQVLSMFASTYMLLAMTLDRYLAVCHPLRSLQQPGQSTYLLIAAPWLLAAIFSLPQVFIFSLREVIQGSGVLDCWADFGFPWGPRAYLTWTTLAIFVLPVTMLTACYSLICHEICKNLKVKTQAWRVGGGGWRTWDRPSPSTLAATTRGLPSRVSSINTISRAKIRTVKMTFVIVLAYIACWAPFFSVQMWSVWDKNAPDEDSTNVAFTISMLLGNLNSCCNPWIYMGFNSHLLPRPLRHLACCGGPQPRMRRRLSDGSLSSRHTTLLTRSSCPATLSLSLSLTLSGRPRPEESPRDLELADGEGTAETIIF
Experimental: as §1, §2

Sequence of V1a receptors (P37288 whole entry): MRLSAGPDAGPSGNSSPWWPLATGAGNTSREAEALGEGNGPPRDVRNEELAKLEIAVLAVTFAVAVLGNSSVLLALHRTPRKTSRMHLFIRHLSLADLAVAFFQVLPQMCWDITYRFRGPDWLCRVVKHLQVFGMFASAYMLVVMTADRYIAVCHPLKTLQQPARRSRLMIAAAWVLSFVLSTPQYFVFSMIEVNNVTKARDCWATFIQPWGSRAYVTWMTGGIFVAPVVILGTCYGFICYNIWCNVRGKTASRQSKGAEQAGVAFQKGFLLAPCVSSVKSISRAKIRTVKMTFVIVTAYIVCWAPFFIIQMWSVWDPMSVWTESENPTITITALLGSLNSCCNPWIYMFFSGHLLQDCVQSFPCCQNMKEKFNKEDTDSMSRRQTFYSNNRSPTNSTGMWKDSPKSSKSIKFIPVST
T1 sequence (P30518 whole entry): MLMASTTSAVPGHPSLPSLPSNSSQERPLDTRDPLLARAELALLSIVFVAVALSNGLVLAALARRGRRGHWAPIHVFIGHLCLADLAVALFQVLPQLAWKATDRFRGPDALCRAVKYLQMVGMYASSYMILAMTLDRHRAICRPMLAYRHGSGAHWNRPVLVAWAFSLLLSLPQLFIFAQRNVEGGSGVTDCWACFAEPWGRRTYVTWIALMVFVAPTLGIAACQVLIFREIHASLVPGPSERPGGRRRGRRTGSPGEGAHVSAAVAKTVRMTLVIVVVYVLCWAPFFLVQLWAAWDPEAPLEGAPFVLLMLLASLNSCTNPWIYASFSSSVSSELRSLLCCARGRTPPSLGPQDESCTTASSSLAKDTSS

IC50 [1] [nM] | IC50 [2] [nM] | IC50 OXT/IC50 V2 [2] | IC50 [3] [nM] | IC50 V1a/IC50 V2 [3] | IC50 [4] [nM] | IC50 V1b/IC50 V2 [4] | melting point [°C] | Structure (SMILES)
1 | 700 | >100 | 260 | >100 | > 1000 | >100 | 148 | CCOc1ccc2c(c1)C(C)(c1ccccc1)C(=O)N2S(=O)(=O)c1ccc(C(=O)NC(C)(C)C)cc1OC (single isomer, unassigned) [Example 99, N-tert-butyl-3-methoxy-4-[3-methyl-3-phenyl-5-ethoxy-2-oxo-2,3-dihydroindole-1-sulphonyl]benzamide]
1.3 | 390 | >100 | > 1000 | >100 | 940 | >100 | 152 | CCOc1ccc2c(c1)C(C)(c1ccccc1Cl)C(=O)N2S(=O)(=O)c1ccc(C(=O)NC(C)(C)CO)cc1 (stereo not drawn) [Example 72, 4-[3-(2-chlorophenyl)-5-ethoxy-3-methyl-2-oxo-2,3-dihydroindole-1-sulphonyl]-N-(2-hydroxy-1,1-dimethylethyl)benzamide]
1.9 | 140 | 74 | 450 | >100 | > 1000 | >100 | 153 | CCOc1ccc2c(c1)C(C)(c1ccccc1Cl)C(=O)N2S(=O)(=O)c1ccc(C(=O)NC(C)(C)C)cc1 (single isomer, unassigned) [Example 12, N-tert-butyl-4-[3-(2-chlorophenyl)-5-ethoxy-3-methyl-2-oxo-2,3-dihydroindole-1-sulphonyl]benzamide]
